According to patent US6642003B2, “Human glucose-dependent insulin-secreting cell line” (Cedars-Sinai Medical Center, priority 2001, dated 2003):

Tests used:
[1] = test system: glucose-intolerant aging Wistar rats; details: cited from earlier work
PANC-1/IDX-1 cells [2] = assay: Insulin release into culture medium (RIA), PANC-1 cells transfected with human IDX-1; format: cell-based
Experimental: Rat (ARIP) and human (PANC-1) ductal cell lines were respectively a gift from Dr. J. M. Egan (National Institute on Aging, Baltimore, Md.) or purchased from ATCC (American Type Culture Collection; Manassas, Va.). ARIP cells were cultured in F12 medium (Gibco-BRL, Gaithersburg; Md.) containing 100 μg/ml penicillin, 50 μg/ml streptomycin and 10% fetal calf serum (FCS; Gibco-BRL) at 37° C. under a humidified condition of 95% air and 5% CO2. PANC-1 cells were cultured in DMEM medium supplemented with antibiotics and FCS, as indicated for F12 medium. Treatment with human GLP-1 (H-6795, Bachem; King of Prussia, Pa.) was carried out using cells grown to 80% of confluence, after washing the cell layer with serum-free medium and a “wash-out” incubation for 6-h with serum free medium. To determine dose response to GLP-1, cells were cultured with fresh serum-free medium containing increasing concentration of GLP-1 (0.1, 1, 10, 20 nM), or vehicle alone. At the completion of the experiment, media and cells were collected. To determine the time course of response, cells were cultured in serum-free medium with GLP-1 (10 nM) for 0, 12, 24, 48, 72 or 96 h. Control dishes were cultured with vehicle alone, or with the peptide receptor antagonist of GLP-1, Exendin-9 (100 nM) for 72 h (gift Dr. J. M. Egan). The glucose concentration in the culture medium was 12 mM for both cell lines.
(§1) PANC-1 cells were transfected with a pcDNA3 construct (Invitrogen; Carlsbad, Calif.) harboring the wild-type full-length IDX-1 cDNA using LipoTAXI (Catalog N. 204110; Mammalian Transfection Kit, Stratagene; La Jolla, Calif.). Control cells were transfected with the vector alone. The selection of positive (i.e. transfected) cells was carried out by culturing the cells in the presence of 400 μg/ml of G418 sulfate (GN-04, Omega; Tarzana, Calif.).
PANC-1 (parental, IDX-1-transfected, and neomycin-transfected) cells and ARIP (only parental) cells were plated at density of 10^6 cells/well in a 6 well plate. Once the cells reached 80% of confluence, they were washed with serum-free medium containing 12 mM glucose and exposed to fresh serum-free medium for increasing length of time (0, 12, 24, 48, 72, 96 h) in the presence of various concentrations of GLP-1 (0.1, 1, 10, 20 nM) or vehicle. Glucose-dependent insulin secretion was evaluated by culturing the cells in the presence of a determined concentration of GLP-1 (10 nM for 72 h) with increasing concentration of glucose in the culture medium ([…]). Insulin released into the medium was measured by RIA (Linco Research Inc.; St. Charles, Mass.). Total insulin accumulation in the culture medium was then normalized for total cellular protein content per each Individual cultures.
(§2) Total cellular protein content was measured by utilizing the Bradford method (Bio-Rad; Richmond, Calif.). The amount of proteins measured was used as a correction factor for determining the relative amount of medium to be assayed for each individual RIA for insulin.

PANC-1/IDX-1 cells [3] = assay: RT-PCR of islet β-cell specific transcripts, PANC-1/IDX-1 cells; format: cell-based, human
Experimental: as §1
(§3) After the treatment of ARIP and PANC-1 cells with GLP-1, Exendin-9, or vehicle, for the described length of time and the various doses, the culture medium was removed and the cells were washed (twice) with serum-free medium. Total RNA was isolated using the TRiazol-method (Gibco-BRL), and treated with DNase (Amplification Grade, GibcoBRL) in 20 mmol/l Tris-HCL (pH 8.4), 2 mmol/l MgCl2, and 50 mmol/l KCl to remove any traces of contaminating genomic DNA. RNA (2.5 μg) was then subjected to reverse transcription (RT reagents; Promega; Madison, Wis.). RT-PCR was undertaken in a volume of 50 μl of buffer containing 50 mmol/l KCl, 10 mmol/l Tris-HCl, 3.5 mmol/l MgCl2, 200 μmol/l each dNTPs, and 0.4 μmol/l each of sense and antisense primers to rat or human insulin (depending on the specific cell from which the RNA was extracted). Amplification was performed for 30 cycles at the denaturing temperature of 94° C. for 1 min, annealing temperature of 60° C. for 45 sec, and an extension temperature of 72° C. for 1 min. […] These included more irregular and variable cell shapes, with a cytoplasm less homogenous and “rougher” in appearance than control culture.
(§4) Treatment with GLP-1 induces the differentiation of ductal epithelial cells into insulin-producing cells. FIG. 2 illustrates a series of cell cultures grown with or without GLP-1 (10 nM) for 72 h. […] Preabsorption of the antibody with an excess of human recombinant insulin prevented the staining of insulin-positive GLP-1 treated cells (data not shown). While treatment with GLP-1 turned the majority of ARIP cells into […] For β-actin, the annealing temperature was raised to 64° C. for 1 min and gene-specific primers were used. For GLP-1-receptor (GLP-R) the annealing temperature used was 55° C. All other experimental conditions to amplify GLUT2, glucokinase, and GLP-R mRNAs were identical to those described for the amplification of insulin mRNA. RT and PCR conditions for human transcripts were identical to those described for rat mRNAs.
(§5) Southern blotting with species-specific full length cDNA probes for insulin, GLUT-2, glucokinase, GLP-1 receptor and β-actin was performed as previously described. Y. Wang, R. Perfetti, N. H. Greig, H. W. Holloway, K. A. DeOre, C. Montrose-Rafizadeh, D. Elahi, J. M. Egan, “Glucagon-like peptide-1 can reverse the age-related decline in glucose tolerance in rats.” J Clin Invest 99:2883-2889, 1997.

PANC-1 cells = assay: Insulin release into culture medium (RIA), parental PANC-1 cells; format: cell-based, human
Experimental: Rat (ARIP) and human (PANC-1) ductal cell lines were respectively a gift from Dr. J. M. Egan (National Institute on Aging, Baltimore, Md.) or purchased from ATCC (American Type Culture Collection; Manassas, Va.). ARIP cells were cultured in F12 medium (Gibco-BRL, Gaithersburg; Md.) containing 100 μg/ml penicillin, 50 μg/ml streptomycin and 10% fetal calf serum (FCS; Gibco-BRL) at 37° C. under a humidified condition of 95% air and 5% CO2. PANC-1 cells were cultured in DMEM medium supplemented with antibiotics and FCS, as indicated for F12 medium. […]
PANC-1 (parental, IDX-1-transfected, and neomycin-transfected) cells and ARIP (only parental) cells were plated at density of 10^6 cells/well in a 6 well plate. […] Glucose-dependent insulin secretion was evaluated by culturing the cells in the presence of a determined concentration of GLP-1 (10 nM for 72 h) with increasing concentration of glucose in the culture medium ([…]). Insulin released into the medium was measured by RIA (Linco Research Inc.; St. Charles, Mass.). […]
as §2

ARIP cells = assay: RT-PCR of islet β-cell specific transcripts, ARIP cells; format: cell-based, rat
Experimental: as §3, §4, §5

glucagon-like peptide-1 [GLP-1]
effect on glucose tolerance [1]: restored normal glucose tolerance | effect on islet cell proliferation [1]: induced islet cell proliferation | lowest concentration of glucose required to induce the secretion of insulin (PANC-1/IDX-1 cells [2]; GLP-1 10 nM for 72 h): 3 mM | glucose dependence of insulin release (PANC-1/IDX-1 cells [2]; GLP-1 10 nM for 72 h, increasing glucose): release insulin in a glucose-dependent manner | time of peak insulin secretion (PANC-1/IDX-1 cells [2]; GLP-1 10 nM, 12 mM glucose): ≤ 48 h | time of plateau of insulin secretion (PANC-1/IDX-1 cells [2]; GLP-1 10 nM, 12 mM glucose): 72 h | concentration of GLP-1 required to induce insulin secretion (PANC-1/IDX-1 cells [2]; serum-free medium, 12 mM glucose, 72 h): 1 nM | time of GLUT2 mRNA expression (PANC-1/IDX-1 cells [3]; GLP-1 10 nM): 24 h | time of earliest detection of insulin mRNA (PANC-1/IDX-1 cells [3]; GLP-1 10 nM): 48 h | time of glucokinase mRNA expression (PANC-1/IDX-1 cells [3]; GLP-1 10 nM): 72 h | GLP-1 dose at peak of insulin mRNA levels (PANC-1/IDX-1 cells [3]; data not shown): 10 nM | GLP-1 dose at plateau of insulin mRNA levels (PANC-1/IDX-1 cells [3]; data not shown): 20 nM | lowest dose of GLP-1 required to detect insulin mRNA (PANC-1/IDX-1 cells [3]; data not shown): 1 nM | insulin secretion in response to GLP-1 (PANC-1 cells; parental PANC-1, 12 mM glucose, various GLP-1 concentrations): did not secrete insulin | insulin secretory response with increasing glucose (PANC-1 cells; wild-type PANC-1, GLP-1 10 nM for 72 h, data not shown): No insulin secretory response | time of first detection of GLUT2 mRNA (ARIP cells; GLP-1 10 nM): 24 h | time of first detection of glucokinase mRNA (ARIP cells; GLP-1 10 nM): 72 h | time of first detection of insulin mRNA (ARIP cells; GLP-1 10 nM): 48 h | lowest concentration of GLP-1 required for the initial detection of insulin mRNA (ARIP cells; data not shown): 1 nM
